Measurements reported in patent US20050281888A1, “Nutritional supplement for infants” (priority 2004, published 2005).

System: blood lymphocytes
Assay: Zinc dose response: lymphocyte response to mitogen PHA in supplemented infants
Type: in vivo, infants (human), age 4-36 months
Conditions: for Lymphocyte response to PHA (stimulation index): infants age 4-36 months
Procedure: The basic concept underlying the assessment of the most optimum nutrient amounts for a given age group uses the principle of “dose-response graphs”. At least four groups of individuals were provided with various amounts of a given nutrient and their immune responses were measured using established and accepted techniques. The amount of a nutrient that gave the best response was considered the optimum amount. Dose response graphs were determined for all vitamins and trace elements considered essential for human health, particularly immunity.
Data for the dose response chart for zinc in a group of 4 to 36 month old infants is shown in FIG. 1, with the total amount of zinc taken is shown for each group. To determine the magnitude of immune response, an aliquot of blood was withdrawn from each subject in the study, blood lymphocytes were separated, washed and mixed with the mitogen phytohemagglutinin (PHA) in previously determined optimum amount. The optimum amount of PHA used in the experiments was predetermined by a set of dose response graphs using lymphocytes of a healthy donor and four different concentrations of PHA. After culture in a sterile environment for 72 hours, the cells were washed and mixed with radioactive thymidine. The same steps were undertaken in a control sample in which only the culture medium was used, not PHA. The cells were washed and radioactivity determined.
Dietary intake of zinc was calculated based on three 24-hour recalls and by the food frequency questionnaire methods.

Compound: [Zn] [zinc]
- Immune response, conclusion in words (3 mg zinc intake in addition to zinc from a balanced diet): best immune response
- Lymphocyte response to PHA (stimulation index) (supplemental zinc 3 mg): 58
- Lymphocyte response to PHA (stimulation index) (supplemental zinc 6 mg): 41
- Lymphocyte response to PHA (stimulation index) (supplemental zinc 9 mg): 32
